The values below are quoted from earlier work in patent publication US7625901B2, “Substituted monocyclic CGRP receptor antagonists” (Merck & Co., Inc., priority 2006, dated 2009).

The test system of data set [1] is facial blood flow. The note with it: marmoset, electrical stimulation of the trigeminal ganglion.
The subject of data set [2] is acute attacks of migraine. The note with it: clinical trials.
For data set [3], the system named is headache induced by CGRP infusion. The note with it: control group.
The subject of data set [4] is facial blood flow. The note with it: rat, trigeminal ganglion stimulation.
Data set [5] deals with diameter of the middle meningeal artery. Particulars: rats, electrical stimulation of the dura mater, prior administration.

No end group written: not given here.

With `NCCCC[C@H](NC(=O)[C@@H](Cc1cc(Br)c(O)c(Br)c1)NC(=O)N1CCC(N2Cc3ccccc3NC2=O)CC1)C(=O)N1CCN(c2ccncc2)CC1` [BIBN4096BS], in data set [1], the “block of increase in facial blood flow” value is recorded as “could be blocked”. Moreover, the “treating acute attacks of migraine” value in data set [2] is “effective”. Also, the “prevention of headache induced by CGRP infusion” value in data set [3] is “able to prevent headache”.
On to “CGRP(8-37): a peptide CGRP antagonist; fragment of CGRP that lacks seven N-terminal amino acid residues (VTHRLAGLLSRSGGVVKNNFVPTNVGSKAF; ends and bridges not checked; UniProt P06881 90-119, looked up, fragment)”, for which, in data set [4], the “inhibition of increased facial blood flow” value is recorded as “inhibited”. In data set [5], the “block of increased diameter of the middle meningeal artery” value was “blocked”.
